Measurements taken from patent US12139481B2, “Compositions comprising macrocycle derivatives incorporating bridged macrocycles and methods of producing and using same” (Southwestern Oklahoma State University, priority 2015, dated 2024).
pIC50: −log10 of the molar value. Read-outs that look alike come from different tables or passages of the source.

Key:
[1] = test system: Cryptococcus neoformans ATCC 90113; test: Antimicrobial microdilution assay against Cryptococcus neoformans (modified CLSI/NCCLS, optical density); assay type: cell-based; settings: for X more potent than Amphotericin B: C. neoformans, ratio of molar IC50 to Amphotericin B
Method in brief: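 Broth microdilution (modified CLSI) in RPMI pH 6.0, samples serially diluted in 20% DMSO/saline and tested in duplicate, growth followed by OD630 before and after incubation. MFC is the lowest concentration giving no growth when 5 μL from clear wells is plated on agar.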

[2] = test system: L. donovani promastigotes; test: Antileishmanial Alamar Blue assay on promastigotes; assay type: cell-based, Leishmania donovani; settings: for X more potent than Pentamidine: L. donovani, ratio of molar IC50 to Pentamidine
Method in brief: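 L. donovani promastigotes in RPMI 1640 with 10% FCS, from 3-day culture, were set at 5×10^5/mL and exposed to compound (50-3.1 μg/mL) for 48 hours at 26° C. Growth read by Alamar Blue fluorescence (ex 544/em 590 nm); IC50 from percent growth versus concentration.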

[3] = test system: C. krusei ATCC 6258; test: Antifungal broth dilution assay against C. krusei (modified CLSI); assay type: cell-based, Candida krusei; settings: for X more potent than Amphotericin B: C. krusei, ratio of molar IC50 to amphotericin B; for pIC50: read-out: C. krusei IC50 (mol/L)
Procedure: General Experimental Procedures. All organisms were obtained from the American Type Culture Collection (Manassas, VA) and include the fungi Candida albicans ATCC 90028, C. glabrata ATCC 90030, C. krusei ATCC 6258, and Cryptococcus neoformans ATCC 90113, and the bacteria Staphylococcus aureus ATCC 29213 and methicillin-resistant S. aureus ATCC 33591 (MRS). All organisms were tested using modified versions of the CLSI (formerly NCCLS) methods. For all organisms, optical density was used to monitor growth (NCCLS, Reference Method for Broth Dilution Antifungal Susceptibility Testing of Yeasts; Approved Standard M27-A2. National Committee on Clinical Laboratory Standards, 2002 22 (15); and NCCLS, Methods for Dilution Antimicrobial Susceptibility Tests for Bacteria that Grow Aerobically; Approved Standard, Seventh Edition M7-A7. National Committee on Clinical Laboratory Standards, 2006. 26(2)).
Samples (dissolved in DMSO) were serially-diluted in 20% DMSO/saline and transferred (10 μL) in duplicate to 96 well flat bottom microplates. Inocula were prepared by correcting the OD630 of microbe suspensions in incubation broth [RPMI 1640/0.2% dextrose/0.03% glutamine/MOPS @ pH 6.0 (Cellgro) for Candida spp., Sabouraud Dextrose for C. neoformans, and cation-adjusted Mueller-Hinton (Difco) @ pH 7.3 for Staphylococcus spp. to afford an assay volume of […] and final target inocula of: Candida spp. and C. neoformans: 1.5×10^3, and Staphylococcus spp.: 5.0×10^5 CFU/ml. Final sample test concentrations were 1/100th the DMSO stock concentration. […] All organisms were read at either 530 nm using the Biotek Powerwave XS plate reader (Bio-Tek Instruments, Vermont) prior to and after incubation: Candida spp. at 35° C. for 46-50 h, Staphylococcus spp. at 35° C. for 16-20 h, and C. neoformans at 35° C. for 70-74 h. IC50s (concentrations that afford 50% inhibition relative to controls) were calculated using XLfit 4.2 software (IDBS, Alameda, CA) using fit model 201. The MIC is defined as the lowest test concentration that allows no detectable growth. Minimum fungicidal or bactericidal concentrations were determined by removing 5 μl from each clear (or blue) well, transferring to fresh media, and incubating as previously mentioned. The MFC/MBC is defined as the lowest test concentration that kills the organism (allows no growth).
Primary Analysis. Samples were tested in duplicate at one test concentration (50 μg/mL), and percent inhibitions were calculated relative to blank and growth controls. Samples showing 50% inhibition in at least one test organism were selected for dose response (Secondary) studies.
Secondary Analysis. Extracts from the Primary Assay, and first-run pure compounds and column fractions were tested in duplicate at 3 test concentrations (5-fold dilutions). Samples dissolved to 20 mg/mL in DMSO were tested at 200, 40, and 8 μg/mL. Samples dissolved to 2 mg/mL in DMSO were tested at 20, 4, and 0.8 μg/mL.

[4] = test system: C. glabrata ATCC 90030; test: Antifungal broth dilution assay against C. glabrata (modified CLSI); assay type: cell-based, Candida glabrata; settings: for pIC50: converted with molecular weight; for X more potent than Amphotericin B: molar IC50 ratio versus amphotericin B
Method in brief: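 Modified CLSI broth microdilution with OD monitoring before and after incubation at 35 °C: Candida in RPMI 1640/MOPS pH 6.0, 1.5×10^3 CFU/ml, 46-50 h; Staphylococcus in cation-adjusted Mueller-Hinton pH 7.3, 5.0×10^5 CFU/ml, 16-20 h. IC50 from curve fit; MIC is the lowest concentration with no growth; MFC/MBC from subculture.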

[5] = in vitro, C. neoformans ATCC 90113
[6] = in vitro, C. neoformans ATCC 90113, read-out: C. neoformans IC50 (mol/L)
[7] = promastigotes, 48 hours, Alamar Blue
[8] = promastigotes, 48 hours, Alamar Blue, read-out: L. donavani IC50
[9] = Nakaseomyces glabratus, ATCC90030, in vitro

| Molecule | X more potent than Amphotericin B [1] | C. neoformans IC50 [1, 5] | pIC50 [1, 6] | X more potent than Pentamidine [2] | L. donovani IC50 [2, 7] | pIC50 [2, 8] | X more potent than Amphotericin B [3] | C. krusei IC50 ([3]; in vitro) | pIC50 ([3]; in vitro) | C. glabrata IC50 ([4]; in vitro) | pIC50 ([4]; in vitro) | X more potent than Amphotericin B [4] | further results |
| --- | --- | --- | --- | --- | --- | --- | --- | --- | --- | --- | --- | --- | --- |
| CC(=O)[O-].F[P-](F)(F)(F)(F)F.F[P-](F)(F)(F)(F)F.F[P-](F)(F)(F)(F)F.[Mn+2].[NH4+].[NH4+].c1ccc(CN2CCN3CCCN(CC2)CCN(Cc2ccccc2)CC3)cc1 [AW036, [Mn(Bn2PBCyclen)(C2H3O2)]PF6•2NH4PF6] | 0.03 | 7.070 µg/mL | 5.14 | 0.20 | 25.41 µg/mL | 4.59 | 0.29 | 4.990 µg/mL | 5.29 |  |  |  |  |
| Cl.Cl.Cl.Cl.Cl.Cl.Cl.Cl.c1cc(CN2CCNCCCN3CCN(CC3)CC2)cc(CN2CCNCCCN3CCN(CC3)CC2)c1 [OB46B, m-SB-homocyclens HCl salt] | 0.75 | 0.280 µg/mL |  | 0.13 | 34.26 µg/mL | 4.38 | 0.16 | 7.420 µg/mL | 5.04 |  |  |  | pIC50 ([1]; in vitro, C. neoformans ATCC 90113, HCl salt, read-out: C. neoformans IC50 (mol/L)): 6.50 |
| O=[N+]([O-])[O-].O=[N+]([O-])[O-].O=[N+]([O-])[O-].O=[N+]([O-])[O-].O=[N+]([O-])c1ccc(CC2CNCCN(Cc3ccc(CN4CCCN5CCN(CCCNCC4)CC5)cc3)CCCN3CCN(CC3)C2)cc1.[Ni+2].[Ni+2] (stereo not drawn) [SJA236, [Ni2(bis-SB-C-Ar-NO2)(NO3)4]] | 0.34 | 0.740 µg/mL | 6.15 | 0.23 | 24.85 µg/mL | 4.63 | 0.26 | 6.030 µg/mL | 5.24 | 5.750 µg/mL | 5.26 | 0.26 |  |
| c1c(CN2CCCN3CCN(CCCNCC2)CC3)cc(CN2CCCN3CCN(CCCNCC2)CC3)cc1CN1CCCN2CCN(CCCNCC1)CC2 [CDG19, tris-SB-cyclams] | 1.05 |  |  | 0.27 |  |  | 0.25 |  |  |  |  | 0.11 | pIC50 ([1]; Cryptococcus neoformans, ATCC90113, in vitro, C. neoformans ATCC 90113, read-out: C. neoformans IC50 (mol/L)): 6.64; IC50 ([1]; Cryptococcus neoformans, ATCC90113, in vitro, C. neoformans ATCC 90113, read-out: C. neoformans IC50 (μg/mL)): 0.18 µg/mL; pIC50 ([2]; Leishmania donovani, 48 h, read-out: L. donavani IC50 (mol/L)): 4.70; IC50 ([2]; Leishmania donovani, promastigotes, 48 hours, Alamar Blue, read-out: L. donovani IC50): 15.9 µg/mL; pIC50 ([3]; Pichia kudriavzevii, ATCC6258, in vitro): 5.22; IC50 ([3]; Pichia kudriavzevii, ATCC6258, in vitro, read-out: C. krusei IC50 (μg/mL)): 4.79 µg/mL; IC50 [4, 9]: 9.8 µg/mL; pIC50 [4, 9]: 4.91 |
| c1c(CN2CCNCCN3CCN(CC3)CC2)cc(CN2CCNCCN3CCN(CC3)CC2)cc1CN1CCNCCN2CCN(CC2)CC1 [CDG29, tris-SB-cyclens] | 1.69 | 0.100 µg/mL | 6.85 | 0.32 | 11.69 µg/mL | 4.78 | 0.23 | 4.660 µg/mL | 5.18 |  |  |  |  |
| O=[N+]([O-])c1ccc(CC2CNCCN(Cc3ccc(CN4CCCN5CCN(CCCNCC4)CC5)cc3)CCCN3CCN(CC3)C2)cc1 (stereo not drawn) [SJA233, Bis-SB-C-Ar-NO2] | 0.30 | 0.550 µg/mL | 6.10 | 0.12 | 30.32 µg/mL | 4.36 | 0.25 | 4.070 µg/mL | 5.23 |  |  |  |  |
| [Br-].[Br-].c1cc(C[N+]23CCCN(CCN4CCCN(CC2)C4)C3)ccc1C[N+]12CCCN(CCN3CCCN(CC1)C3)C2 [SLK17A, [p-(BMBCyclams)]Br2] | 0.02 | 8.250 µg/mL | 4.94 | 0.23 | 16.69 µg/mL | 4.63 | 1.21 | 0.880 µg/mL | 5.91 | 1.317 µg/mL | 5.73 | 0.77 |  |
| c1cc(CN2CCNCCCN3CCN(CC3)CC2)ccc1CN1CCNCCCN2CCN(CC2)CC1 [OB45, p-SB-Homocyclens] | 0.16 | ≤ 0.800 µg/mL | 5.82 | 0.16 | 17.44 µg/mL | 4.48 | 0.98 | 0.800 µg/mL | 5.82 |  |  |  |  |
| CC(=O)[O-].F[P-](F)(F)(F)(F)F.[Zn+2].c1ccc(CN2CCN3CCCN(CC2)CCN(Cc2ccccc2)CC3)cc1 [AW041, [Zn(Bn2PBCyclen)(C2H3O2)]PF6] | 0.02 | 7.330 µg/mL |  | 0.15 | 22.92 µg/mL |  | 0.19 | 5.170 µg/mL |  |  |  |  |  |
| O=[N+]([O-])c1ccc(CC2CNCCN(Cc3ccc(CN4CCCN5CCN(CCCNCC4)CC5)cc3)CCCN3CCN(CC3)C2)cc1.[Cu+2].[Cu+2].[O-][Cl+3]([O-])([O-])[O-].[O-][Cl+3]([O-])([O-])[O-].[O-][Cl+3]([O-])([O-])[O-].[O-][Cl+3]([O-])([O-])[O-] (stereo not drawn) [SJA234, [Cu2(bis-SB-C-Ar-NO2)(ClO4)4]] | 0.15 | 1.910 µg/mL | 5.80 | 0.21 | 30.31 µg/mL | 4.60 | 0.40 | 4.550 µg/mL | 5.43 |  |  |  |  |
| C[C@@H]1[C@H](O)[C@@H](C)/C=C/C=C/C=C/C=C/C=C/C=C/C=C/[C@H](O[C@@H]2O[C@H](C)[C@@H](O)[C@H](N)[C@@H]2O)C[C@@H]2O[C@](O)(C[C@@H](O)C[C@@H](O)[C@H](O)CC[C@@H](O)C[C@@H](O)CC(=O)O[C@H]1C)C[C@H](O)[C@H]2C(=O)O [AMB, Amphotericin B, reference compound] | 1.00 | 0.220 µg/mL |  |  |  |  | 1.00 | 1.380 µg/mL | 5.83 | 1.310 µg/mL | 5.85 | 1.00 | pIC50 ([1]; read-out: IC50 against C. neoformans): 6.62 |
| [Zn3(tris-CB-Cyclams)(OAc)3][PF6]3•2.4NH4PF6 [BNS26] | 0.07 | 6.840 µg/mL | 5.47 |  |  |  | 2.49 | 1.220 µg/mL | 6.22 | 2.140 µg/mL | 5.98 | 1.35 |  |
